Data reported in PubChem BioAssay (NCI).
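Step 1: Grow cells in 96-well plates. Step 2: Expose to compound for 48 hours at 5 concentrations. Step 3: Interpolate endpoints linearly; if unreached, use highest concentration. TGI: concentration producing complete growth inhibition.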

Tests used:
Experiment in all cases: inhibition of tumour cell growth, NCI panel, 48 h
786-0 renal = test system: 786-0 renal
A549 NSCLC = test system: A549 NSCLC
ACHN renal = test system: ACHN renal
BT-549 breast = test system: BT-549 breast
CAKI-1 renal = test system: CAKI-1 renal
CCRF-CEM leukemia = test system: CCRF-CEM leukemia
COLO 205 colon = test system: COLO 205 colon
DU-145 prostate = test system: DU-145 prostate
EKVX NSCLC = test system: EKVX NSCLC
HCC-2998 colon = test system: HCC-2998 colon
HCT-116 colon = test system: HCT-116 colon
HCT-15 colon = test system: HCT-15 colon
HL-60(TB) leukemia = test system: HL-60(TB) leukemia
HOP-62 NSCLC = test system: HOP-62 NSCLC
HS 578T breast = test system: HS 578T breast
HT29 colon = test system: HT29 colon
IGROV1 ovarian = test system: IGROV1 ovarian
K-562 leukemia = test system: K-562 leukemia
LOX IMVI melanoma = test system: LOX IMVI melanoma
M14 melanoma = test system: M14 melanoma
MALME-3M melanoma = test system: MALME-3M melanoma
MCF7 breast = test system: MCF7 breast
MDA-MB-231 breast = test system: MDA-MB-231 breast
MDA-MB-435 = test system: MDA-MB-435
MDA-N = test system: MDA-N
MOLT-4 leukemia = test system: MOLT-4 leukemia
NCI-H226 lung = test system: NCI-H226 lung
NCI-H23 lung = test system: NCI-H23 lung
NCI-H460 lung = test system: NCI-H460 lung
NCI-H522 lung = test system: NCI-H522 lung
NCI/ADR-RES ovarian = test system: NCI/ADR-RES ovarian
OVCAR-3 ovarian = test system: OVCAR-3 ovarian
OVCAR-4 ovarian = test system: OVCAR-4 ovarian
OVCAR-5 ovarian = test system: OVCAR-5 ovarian
OVCAR-8 ovarian = test system: OVCAR-8 ovarian
PC-3 prostate = test system: PC-3 prostate
RPMI-8226 leukemia = test system: RPMI-8226 leukemia
RXF 393 renal = test system: RXF 393 renal
SF-268 CNS = test system: SF-268 CNS
SF-295 CNS = test system: SF-295 CNS
SF-539 CNS = test system: SF-539 CNS
SK-MEL-2 melanoma = test system: SK-MEL-2 melanoma
SK-MEL-28 melanoma = test system: SK-MEL-28 melanoma
SK-MEL-5 melanoma = test system: SK-MEL-5 melanoma
SK-OV-3 ovarian = test system: SK-OV-3 ovarian
SN12C renal = test system: SN12C renal
SNB-19 CNS = test system: SNB-19 CNS
SNB-75 CNS = test system: SNB-75 CNS
SR leukemia = test system: SR leukemia
SW-620 colon = test system: SW-620 colon
T-47D breast = test system: T-47D breast
TK-10 renal = test system: TK-10 renal
UACC-257 melanoma = test system: UACC-257 melanoma
UO-31 renal = test system: UO-31 renal

Measured: TGI

CC(=O)NN(c1ccccc1)C1CCN(c2ccccc2)N1C(C)=O (centres undefined)
7.65 µM: K-562 leukemia
> 10 µM: all other assays above
